# Tested on: B16F10 melanoma tumors
# Experiment: Subcutaneous melanoma tumor model, in vivo transfection with CAT reporter gene
# Parameters: species or system BALB/C mice
# Details: cytofectin/CAT plasmid complex injected into tumor, tumors collected after forty-eight hours; averages; FIG. 3
# Experimental: A) General Subcutaneous Tumor Transfection Assay. Tumors are prepared by injecting a suspension of tumor cells subcutaneously on the side of a mouse strain compatible with the specific tumor type. The tumors are periodically measured. Once the tumors reach a size suitable for injection, the tumor volume is approximated based on the measured diameter assuming a spherical tumor. A complex of the cytofectin compound to be evaluated with a plasmid encoding a reporter gene (e.g., CAT) in a volume of saline equal to the volume of the tumor to be treated is then injected at a flow rate optimized for the particular tumor type. After an appropriate time, the tumors are collected, frozen and then ground up. The reporter gene product is subsequently extracted and the quantity expressed is determined using extraction and assay conditions appropriate for the particular gene product. A variety of tumor types may be evaluated using this general technique. […]
# B) Subcutaneous Melanoma Tumor Model. […] When the tumors reached 4.5 mm to 7.0 mm in diameter, the volume of each individual tumor was calculated by measuring the diameter of the tumor and assuming a spherical tumor. For each individual tumor, a volume of the cytofectin/CAT plasmid complex in saline equivalent to the calculated volume of the tumor was injected into the tumor at a rate of 2 ml/min. […] CAT activity was quantitated as described below. […]
row,SMILES,CAT activity (relative transgene expression vs pDNA transfection alone)
1,CCCCCCCCCCCCCCOCC(C[N+](C)(C)CCCNC(=O)NCCCCNC(=O)NCCC[N+](C)(C)CC(COCCCCCCCCCCCCCC)OCCCCCCCCCCCCCC)OCCCCCCCCCCCCCC (centres unmarked) [SBGU-DMRIE],greater activity than the naked DNA (pDNA) control
2,CCCCCCCCCCCCCCOCC(C[N+](C)(C)CCCNC(=O)NCCCCCCNC(=O)NCCC[N+](C)(C)CC(COCCCCCCCCCCCCCC)OCCCCCCCCCCCCCC)OCCCCCCCCCCCCCC (centres unmarked) [SHGU-DMRIE],greater activity than the naked DNA (pDNA) control
